What follows are cell lines tested with C1=CC2=C(C=C(C(=C2N=C1)O)N=NC3=CC4=C(C=C3)C=C(C=C4)S(=O)(=O)O)S(=O)(=O)O + CCNC(=O)c1noc(-c2cc(C(C)C)c(O)cc2O)c1-c1ccc(CN2CCOCC2)cc1 [Luminespib] (partner 0.01 µM) (assay: relative viability (nuclei count vs DMSO), 5 days (fraction); higher = more cells survive). Settings: first compound 0.08 µM.
Procedure, shortened: (§1)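 For relative viability, nuclei counts in treated wells were divided by those in vehicle wells. Lung cancer cell lines had been pin-tool dosed in 1536-well plates the day after seeding and cultured for 5 days, then fixed and stained in one step (final 0.05% Triton X-100, 1% formaldehyde, 1 ug/ml Hoechst) and imaged at 4×. Doses were one drug alone or a fixed anchor-drug dose plus five library-drug doses (not always all listed) in √10 steps, and values are duplicate-plate medians.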

**Q.** With RERF-LC-KJ as the cell line, how does the relative viability read?
**A.** The relative viability was 1.38.

**Q.** How did the relative viability turn out when ABC-1 was run?
**A.** The relative viability was 0.609.

**Q.** NCI-H358 was tested. Which relative viability did it give?
**A.** Its relative viability is 0.342.

**Q.** For NCI-H650, which relative viability is on record?
**A.** The relative viability was 0.876.

**Q.** For PC-3 [JPC-3], which relative viability is on record?
**A.** The relative viability was 0.576.

Same assay, conditions: first compound 0.253 µM

**Q.** Which relative viability does the source give for RERF-LC-KJ here?
**A.** The relative viability was 1.18.

**Q.** With NCI-H358 as the cell line, how does the relative viability read?
**A.** The relative viability was 0.382.

**Q.** How did the relative viability turn out when NCI-H650 was run?
**A.** The relative viability was 0.874.

**Q.** Which relative viability does the source give for PC-3 [JPC-3] here?
**A.** Its relative viability is 0.708.

Same assay, conditions: first compound 0.8 µM

**Q.** Which relative viability does the source give for RERF-LC-KJ here?
**A.** Its relative viability is 1.18.

**Q.** How did the relative viability turn out when NCI-H358 was run?
**A.** The relative viability was 0.307.

**Q.** NCI-H650 was tested. Which relative viability did it give?
**A.** The relative viability was 0.691.

**Q.** With PC-3 [JPC-3] as the cell line, how does the relative viability read?
**A.** Its relative viability is 0.663.

Same assay, conditions: first compound 2.53 µM

**Q.** Which relative viability does the source give for RERF-LC-KJ here?
**A.** The relative viability was 1.37.

**Q.** Which relative viability does the source give for ABC-1 here?
**A.** The relative viability was 0.521.

**Q.** With NCI-H358 as the cell line, how does the relative viability read?
**A.** Its relative viability is 0.309.

**Q.** With NCI-H650 as the cell line, how does the relative viability read?
**A.** Its relative viability is 0.889.

**Q.** PC-3 [JPC-3] was tested. Which relative viability did it give?
**A.** The relative viability was 0.729.

Same assay, conditions: first compound 8 µM

**Q.** For RERF-LC-KJ, which relative viability is on record?
**A.** The relative viability was 1.38.

**Q.** ABC-1 was tested. Which relative viability did it give?
**A.** Its relative viability is 0.623.

**Q.** Which relative viability does the source give for NCI-H358 here?
**A.** The relative viability was 0.214.

**Q.** For NCI-H650, which relative viability is on record?
**A.** Its relative viability is 0.76.

**Q.** How did the relative viability turn out when PC-3 [JPC-3] was run?
**A.** Its relative viability is 0.761.

What follows are cell lines tested with C1=CC2=C(C=C(C(=C2N=C1)O)N=NC3=CC4=C(C=C3)C=C(C=C4)S(=O)(=O)O)S(=O)(=O)O + Cc1nc(Nc2ncc(C(=O)Nc3c(C)cccc3Cl)s2)cc(N2CCN(CCO)CC2)n1 [Dasatinib] (partner 0.075 µM) in the same assay as above. Settings: first compound 0.08 µM.
Procedure, shortened: as §1

**Q.** With RERF-LC-KJ as the cell line, how does the relative viability read?
**A.** Its relative viability is 0.803.

**Q.** Which relative viability does the source give for ABC-1 here?
**A.** The relative viability was 0.568.

**Q.** For NCI-H358, which relative viability is on record?
**A.** Its relative viability is 0.149.

**Q.** How did the relative viability turn out when NCI-H650 was run?
**A.** Its relative viability is 0.412.

**Q.** How did the relative viability turn out when PC-3 [JPC-3] was run?
**A.** Its relative viability is 1.11.

Same assay, conditions: first compound 0.253 µM

**Q.** How did the relative viability turn out when RERF-LC-KJ was run?
**A.** The relative viability was 0.965.

**Q.** With NCI-H358 as the cell line, how does the relative viability read?
**A.** The relative viability was 0.183.

**Q.** Which relative viability does the source give for NCI-H650 here?
**A.** The relative viability was 0.433.

**Q.** How did the relative viability turn out when PC-3 [JPC-3] was run?
**A.** The relative viability was 0.98.

Same assay, conditions: first compound 0.8 µM

**Q.** How did the relative viability turn out when RERF-LC-KJ was run?
**A.** Its relative viability is 0.943.

**Q.** Which relative viability does the source give for NCI-H358 here?
**A.** Its relative viability is 0.153.

**Q.** NCI-H650 was tested. Which relative viability did it give?
**A.** Its relative viability is 0.496.

**Q.** For PC-3 [JPC-3], which relative viability is on record?
**A.** The relative viability was 1.03.

Same assay, conditions: first compound 2.53 µM

**Q.** How did the relative viability turn out when RERF-LC-KJ was run?
**A.** Its relative viability is 0.958.

**Q.** How did the relative viability turn out when ABC-1 was run?
**A.** Its relative viability is 0.713.

**Q.** NCI-H358 was tested. Which relative viability did it give?
**A.** The relative viability was 0.184.

**Q.** For NCI-H650, which relative viability is on record?
**A.** The relative viability was 0.462.

**Q.** With PC-3 [JPC-3] as the cell line, how does the relative viability read?
**A.** Its relative viability is 1.05.

Same assay, conditions: first compound 8 µM

**Q.** With RERF-LC-KJ as the cell line, how does the relative viability read?
**A.** Its relative viability is 0.888.

**Q.** For ABC-1, which relative viability is on record?
**A.** Its relative viability is 0.421.

**Q.** NCI-H358 was tested. Which relative viability did it give?
**A.** Its relative viability is 0.168.

**Q.** For NCI-H650, which relative viability is on record?
**A.** Its relative viability is 0.342.

**Q.** With PC-3 [JPC-3] as the cell line, how does the relative viability read?
**A.** Its relative viability is 1.

These cell lines were tested with O=C(NC1CCNCC1)c1n[nH]cc1NC(=O)c1c(Cl)cccc1Cl [AT-7519] + Cc1cc(Nc2cc(N3CCN(C)CC3)nc(Sc3ccc(NC(=O)C4CC4)cc3)n2)n[nH]1 [Tozasertib] (partner 0.1 µM) in the same assay as above. Settings: first compound 0.01 µM.
Procedure, shortened: as §1

**Q.** With RERF-LC-KJ as the cell line, how does the relative viability read?
**A.** The relative viability was 0.426.

**Q.** For ABC-1, which relative viability is on record?
**A.** The relative viability was 0.199.

**Q.** How did the relative viability turn out when NCI-H358 was run?
**A.** Its relative viability is 0.111.

**Q.** For NCI-H650, which relative viability is on record?
**A.** Its relative viability is 0.784.

**Q.** For PC-3 [JPC-3], which relative viability is on record?
**A.** Its relative viability is 0.93.

Same assay, conditions: first compound 0.03162 µM

**Q.** How did the relative viability turn out when RERF-LC-KJ was run?
**A.** Its relative viability is 0.505.

**Q.** ABC-1 was tested. Which relative viability did it give?
**A.** Its relative viability is 0.155.

**Q.** With NCI-H358 as the cell line, how does the relative viability read?
**A.** Its relative viability is 0.116.

**Q.** How did the relative viability turn out when NCI-H650 was run?
**A.** Its relative viability is 0.646.

**Q.** With PC-3 [JPC-3] as the cell line, how does the relative viability read?
**A.** The relative viability was 0.903.

Same assay, conditions: first compound 0.3162 µM

**Q.** RERF-LC-KJ was tested. Which relative viability did it give?
**A.** The relative viability was 0.5.

**Q.** For ABC-1, which relative viability is on record?
**A.** The relative viability was 0.189.

**Q.** With NCI-H358 as the cell line, how does the relative viability read?
**A.** Its relative viability is 0.0818.

**Q.** Which relative viability does the source give for NCI-H650 here?
**A.** Its relative viability is 0.716.

**Q.** For PC-3 [JPC-3], which relative viability is on record?
**A.** Its relative viability is 0.88.

Same assay, conditions: first compound 1 µM

**Q.** Which relative viability does the source give for RERF-LC-KJ here?
**A.** Its relative viability is 0.204.

**Q.** For ABC-1, which relative viability is on record?
**A.** The relative viability was 0.195.

**Q.** Which relative viability does the source give for NCI-H358 here?
**A.** Its relative viability is 0.0852.

**Q.** With NCI-H650 as the cell line, how does the relative viability read?
**A.** The relative viability was 0.675.

**Q.** With PC-3 [JPC-3] as the cell line, how does the relative viability read?
**A.** The relative viability was 0.902.

These cell lines were tested with C1=CC2=C(C=C(C(=C2N=C1)O)N=NC3=CC4=C(C=C3)C=C(C=C4)S(=O)(=O)O)S(=O)(=O)O + O=C(CCCCCCC(=O)Nc1ccccc1)NO [Vorinostat] (partner 1 µM) in the same assay as above. Settings: first compound 0.08 µM.
Procedure, shortened: as §1

**Q.** For RERF-LC-KJ, which relative viability is on record?
**A.** Its relative viability is 0.809.

**Q.** ABC-1 was tested. Which relative viability did it give?
**A.** The relative viability was 0.875.

**Q.** For NCI-H358, which relative viability is on record?
**A.** The relative viability was 0.676.

**Q.** For NCI-H650, which relative viability is on record?
**A.** Its relative viability is 0.435.

**Q.** PC-3 [JPC-3] was tested. Which relative viability did it give?
**A.** The relative viability was 0.648.

Same assay, conditions: first compound 0.253 µM

**Q.** RERF-LC-KJ was tested. Which relative viability did it give?
**A.** The relative viability was 0.811.

**Q.** ABC-1 was tested. Which relative viability did it give?
**A.** Its relative viability is 1.12.

**Q.** Which relative viability does the source give for NCI-H358 here?
**A.** Its relative viability is 0.711.

**Q.** How did the relative viability turn out when NCI-H650 was run?
**A.** The relative viability was 0.472.

**Q.** Which relative viability does the source give for PC-3 [JPC-3] here?
**A.** Its relative viability is 0.819.

Same assay, conditions: first compound 0.8 µM

**Q.** RERF-LC-KJ was tested. Which relative viability did it give?
**A.** Its relative viability is 0.662.

**Q.** Which relative viability does the source give for ABC-1 here?
**A.** Its relative viability is 0.943.

**Q.** For NCI-H358, which relative viability is on record?
**A.** Its relative viability is 0.628.

**Q.** NCI-H650 was tested. Which relative viability did it give?
**A.** The relative viability was 0.416.

**Q.** How did the relative viability turn out when PC-3 [JPC-3] was run?
**A.** The relative viability was 0.751.

Same assay, conditions: first compound 2.53 µM

**Q.** For RERF-LC-KJ, which relative viability is on record?
**A.** Its relative viability is 0.695.

**Q.** ABC-1 was tested. Which relative viability did it give?
**A.** Its relative viability is 1.49.

**Q.** Which relative viability does the source give for NCI-H358 here?
**A.** Its relative viability is 0.748.

**Q.** With NCI-H650 as the cell line, how does the relative viability read?
**A.** Its relative viability is 0.413.

**Q.** With PC-3 [JPC-3] as the cell line, how does the relative viability read?
**A.** Its relative viability is 0.843.

Same assay, conditions: first compound 8 µM

**Q.** For RERF-LC-KJ, which relative viability is on record?
**A.** Its relative viability is 0.603.

**Q.** ABC-1 was tested. Which relative viability did it give?
**A.** The relative viability was 0.982.

**Q.** With NCI-H358 as the cell line, how does the relative viability read?
**A.** The relative viability was 0.701.

**Q.** NCI-H650 was tested. Which relative viability did it give?
**A.** Its relative viability is 0.175.

**Q.** How did the relative viability turn out when PC-3 [JPC-3] was run?
**A.** The relative viability was 0.709.
